Target: RoxA (RoxA-Wt, rubber oxygenase A) (Xanthomonas sp. 35Y, UniProt Q7X0P3)
Details: RoxA as isolated (oxygenated haem), pyridine 2 mM, pH 7; N-terminal haem iron, displaces bound dioxygen

Sequence of RoxA (RoxA-Wt, rubber oxygenase A) (Q7X0P3 entry or part of it): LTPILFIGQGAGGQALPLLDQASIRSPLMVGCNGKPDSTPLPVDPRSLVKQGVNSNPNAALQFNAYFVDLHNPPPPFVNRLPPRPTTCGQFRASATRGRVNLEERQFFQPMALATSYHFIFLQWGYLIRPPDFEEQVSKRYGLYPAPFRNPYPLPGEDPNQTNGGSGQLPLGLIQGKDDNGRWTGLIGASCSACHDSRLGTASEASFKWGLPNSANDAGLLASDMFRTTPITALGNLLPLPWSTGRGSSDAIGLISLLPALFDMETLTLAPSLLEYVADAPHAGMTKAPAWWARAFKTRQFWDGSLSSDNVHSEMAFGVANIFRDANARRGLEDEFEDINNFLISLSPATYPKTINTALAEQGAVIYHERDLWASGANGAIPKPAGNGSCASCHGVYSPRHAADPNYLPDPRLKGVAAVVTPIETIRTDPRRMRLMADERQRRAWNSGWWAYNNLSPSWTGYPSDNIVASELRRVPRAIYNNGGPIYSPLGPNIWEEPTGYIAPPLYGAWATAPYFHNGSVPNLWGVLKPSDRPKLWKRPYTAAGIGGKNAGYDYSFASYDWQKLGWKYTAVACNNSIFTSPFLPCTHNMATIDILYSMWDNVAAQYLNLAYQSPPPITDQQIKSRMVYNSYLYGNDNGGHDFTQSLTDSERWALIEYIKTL

**Q.** `c1ccncc1` [pyridine] was tested. Which “UV-vis spectroscopy (549 nm band), EPR” value did it give?
**A.** The value was “displacement of haem-bound dioxygen by N-heterocycles that then serve as artificial ligands to a ferrous haem”.

Source: publication PMC6797691, “Towards the understanding of the enzymatic cleavage of polyisoprene by the dihaem-dioxygenase RoxA” (AMB Express, 2019)
